For series [1], the system named is Newcastle disease virus. As to the kind of experiment: Antiviral activity against Newcastle disease virus Miyadera infected in CEF assessed as suppression of <= 1% hemagglutinating activity by tube assay. It counts as functional. Particulars: avian paramyxovirus 1, Miyadera.
Series [2] can be described thus: Cytotoxicity against CEF after 24 hrs by microscopic analysis. Further details: species or system Gallus gallus. The conditions noted are these: chicken; for MCC at 24 h: CEF cells; for MCC: 24 h.
Series [3] has as its system Newcastle disease virus. As to the kind of experiment: Ratio of amantadine hydrochloride MIC to compound MIC for Newcastle disease virus Miyadera infected in CEF. It counts as functional, avian paramyxovirus 1.
The nature of series [4]: Ratio of MCC for CEF to MIC for Newcastle disease virus Miyadera infected in CEF.

Converted amounts (≈) assume the structure as drawn. Counter-ions that a name gives are not always drawn.

`C1CC2CC3CCC2C(C1)C3`: the MIC in series [1] was determined as 670 µM (≈ 101 µg/mL). In series [2], this molecule had an MCC at 24 h of 670 µM.
Regarding `CC(=O)NC12CCCC3CC(CCC31)C2` (stereo not given), the MIC in series [1] was found to be 750 µM (≈ 155 µg/mL). In series [2], this molecule yielded an MCC at 24 h of 3000 µM.
`Cl.NC12CCCC3CC(CCC31)C2` (stereo not given): the MIC in series [1] was 25 µM. The same molecule gave an MCC at 24 h in series [2] of 200 µM. The Ratio in series [3] stood at 30; in series [4], 2.
Take `OC12CCCC3CC(CCC31)C2` (stereo not given): the MIC in series [1] was 3000 µM (≈ 499 µg/mL). The molecule also showed an MCC at 24 h in series [2] of 6000 µM.
On the same counts, the results for `O=C1C2CCC3C(CCCC13)C2` (stereo not given) are 1200 µM (≈ 197 µg/mL) and 2400 µM.
Take `O=C(O)C12CCCC3CC(CCC31)C2` (stereo not given): the MIC in series [1] worked out at 10000 µM (≈ 1940 µg/mL). Also, in series [2], the MCC at 24 h turned out to be 10000 µM.
In the case of `COC(=O)C12CCCC3CC(CCC31)C2` (stereo not given), the MIC in series [1] came to 80 µM (≈ 16.7 µg/mL). In series [2], the MCC at 24 h was 80 µM.
As to `OCC12CCCC3CC(CCC31)C2` (stereo not given), in series [1], the MIC stood at 440 µM (≈ 79.3 µg/mL). This molecule returned an MCC at 24 h in series [2] of 870 µM.
Turning to `NC(=O)C12CCCC3CC(CCC31)C2` (stereo not given), in series [1], the MIC is 2600 µM (≈ 503 µg/mL). In series [2], this molecule yielded an MCC at 24 h of 5200 µM.
The corresponding values for `CCCCCCCCOC(=O)C12CCCC3CC(CCC31)C2` (stereo not given) are 330 µM (≈ 101 µg/mL) and 490 µM.
For the molecule `CNC(=O)C12CCCC3CC(CCC31)C2` (stereo not given), the MIC in series [1] is 3000 µM (≈ 622 µg/mL). Besides, the MCC at 24 h in series [2] is 750 µM.
With `CCCCNC(=O)C12CCCC3CC(CCC31)C2` (stereo not given), in series [1], the MIC is 625 µM (≈ 156 µg/mL). In series [2], this molecule returned an MCC at 24 h of 300 µM.
The corresponding values for `O=C(NC1CCCCC1)C12CCCC3CC(CCC31)C2` (stereo not given) are 2250 µM (≈ 620 µg/mL) and 2250 µM.
The corresponding values for `O=C(NC12CC3CC(CC(C3)C1)C2)C12CCCC3CC(CCC31)C2` (stereo not given) are 7500 µM (≈ 2460 µg/mL) and 2000 µM.
The corresponding values for `N#CC12CCCC3CC(CCC31)C2` (stereo not given) are 570 µM (≈ 99.9 µg/mL) and 850 µM.
With `Cl.NCC12CCCC3CC(CCC31)C2` (stereo not given), the MIC in series [1] was found to be 45 µM. For the same molecule, the MCC at 24 h in series [2] was 90 µM. Further, the results for the Ratio in series [3] and in series [4] were 30 and 2, respectively.
Consider `BrC12CCCC3CC(CCC31)C2` (stereo not given), for which the MCC result in series [2] is “ND(Unstable)”.
Turning to `C1=C2CCCC3CC1CCC23` (stereo not given), the MCC result in series [2] is “ND(Unstable)”.
For `O=C(Cl)C12CCCC3CC(CCC31)C2` (stereo not given), the MCC result in series [2] was “ND(Unstable)”.
Regarding `O[C@H]1C2CCCC3C[C@H]1CC[C@H]32` (relative stereo), in series [1], the MIC came to 900 µM (≈ 150 µg/mL). For the same molecule, the MCC at 24 h in series [2] stood at 1800 µM.
On the same counts, the results for `O[C@@H]1C2CCCC3C[C@@H]1CC[C@@H]32` (relative stereo) are 750 µM (≈ 125 µg/mL) and 750 µM.
For the molecule `NC12CC3CC(CC(C3)C1)C2` [AMANTADINE HYDROCHLORIDE], the MIC in series [1] is 1300 µM. Also, the MCC at 24 h in series [2] was determined as 1300 µM.

These data come from ChEMBL document CHEMBL3271944, “Biologically active polycycloalkanes. 2. Antiviral 4-homoisotwistane derivatives” (J Med Chem, 1976).
